Results reported in PubChem BioAssay (NCI).
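96-well plates; 48 h exposure; 5 concentrations. Endpoints by linear interpolation between flanking doses. Not reached: highest tested concentration assigned. The concentration for 50% growth inhibition is given as GI50. The concentration for full growth arrest is given as TGI.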

Experiments:
Assay in all cases: NCI-60 cell line screen, 48 h
[1] = system: NCI/ADR-RES ovarian
[2] = system: HT29 colon
[3] = system: SK-MEL-5 melanoma
[4] = system: CCRF-CEM leukemia
[5] = system: OVCAR-4 ovarian
[6] = system: KM12 colon
[7] = system: SNB-75 CNS
[8] = system: NCI-H226 lung
[9] = system: XF 498 CNS
[10] = system: DMS 114 small cell lung

SMILES | TGI [1] [µM] | TGI [2] [µM] | TGI [3] [µM] | TGI [4] [µM] | TGI [5] [µM] | TGI [6] [µM] | TGI [7] [µM] | TGI [8] [µM] | GI50 [1] [µM] | GI50 [2] [µM] | GI50 [3] [µM] | GI50 [4] [µM] | GI50 [5] [µM] | GI50 [6] [µM] | GI50 [7] [µM] | GI50 [8] [µM] | TGI [9] [µM] | TGI [10] [µM] | GI50 [10] [µM]
C=C(C)C1CCC2(C(=O)O)CCC3(C)C(CCC4C5(C)CCC(O)C(C)(C)C5CCC43C)C12 (centres undefined) | 31.5 | 23.9 | 20.3 | 36.5 | 14.7 | 20.3 | 33 | 40.9 |  |  |  |  |  |  |  |  |  |  | 
Clc1ccc(Nc2ncnc3c2sc2ncccc23)c(Cl)c1 | > 100 | > 100 | > 100 | > 100 | > 100 | > 100 | > 30.9 | > 100 | 0.0139 | 0.0462 | 0.0254 | 0.0218 | > 100 | 3.39 | 0.0689 | 0.42 |  |  | 
C/C(CC(=O)Nc1cccc(C)c1C)=N\NC(N)=S |  | > 100 | > 100 | > 100 | > 100 | > 100 | > 100 | > 100 |  |  |  |  |  |  |  |  | > 100 | > 100 | 
COC(=O)C1=Cc2cn(S(=O)(=O)c3ccc(C)cc3)c3cccc(c23)C(C=C(C)C)N1C(C)=O (centres undefined) |  | > 100 | > 100 | 77.4 | > 100 | > 100 | > 100 | > 100 |  |  |  |  |  |  |  |  | > 100 | > 100 | 
O=[N+]([O-])c1cccc([I+]c2ccccc2)c1 | > 100 | 31.2 | 10.8 | 90.7 | 36 | 26.1 | 20.8 | 21.3 | 47.9 | 11.9 | 2.27 | 5.27 | 7.13 | 12 | 6.56 | 7.12 |  |  | 
Cn1c(=O)c(-c2c(Cl)cccc2Cl)cc2cnc(Nc3ccc(I)cc3)nc21 | 0.225 | 1.56 | 0.157 | > 100 | 7.49 | 1.5 | 0.155 |  |  | 0.122 | < 0.0104 | 0.0224 | 0.213 | 0.0452 | 0.017 | 0.182 |  |  | 
Nc1nc(Cl)nc2c1ncn2C1OC(CO)C(O)C1O (centres undefined) | > 100 | > 100 | > 100 | > 100 | > 100 | > 100 | > 100 | > 100 | 0.579 | > 93.3 | 2.89 | 0.264 | > 100 | > 100 | > 100 | > 100 |  |  | 
O=c1sc(-c2nc3ccccc3[nH]2)c(/N=C/c2ccccc2)n1-c1ccccc1 |  | > 100 | > 100 | > 100 | 26.7 | > 100 | 57.8 | 38.3 |  |  |  |  |  |  |  |  | 54.7 |  | 
[Au+].c1c[n-]cn1.c1ccc([PH+](c2ccccc2)c2ccccc2)cc1 | > 100 | 24.7 | 14.4 | 17.3 | 36.7 | 37.9 | 33.7 | 51.3 | 32.9 | 8 | 3.08 | 1.78 | 13.4 | 14.5 | 15.2 | 12.8 |  | 1.91 | 0.668
